Test results published in patent US12090176B2 (priority 2019, dated 2024).
Where two headings read alike, the source gives them in different places.

System: hematopoietic system damage model in which the mouse has been exposed to cyclophosphamide
Format: in vivo, KM mice
Design: unit not given here

Q: Which results are given for `C#C[C@]1(O)[C@H](O)C[C@H]2[C@@H]3CCc4cc(OC5CCCC5)ccc4[C@H]3CC[C@@]21C` [Nilestriol]?
A: peripheral blood WBC (nilestriol 10 mg/kg group, normal (before modeling)): 13.8 ± 2.5 ×10^12; peripheral blood WBC (nilestriol 10 mg/kg once 6 h after cyclophosphamide, 1 d after modeling): 3.6 ± 0.9 ×10^12; peripheral blood WBC (nilestriol 10 mg/kg once 6 h after cyclophosphamide, 4 d after modeling): 3.5 ± 2.5 ×10^12; peripheral blood WBC (nilestriol 10 mg/kg once 6 h after cyclophosphamide, 6 d after modeling): 8.0 ± 2.5 ×10^12; peripheral blood WBC (nilestriol 10 mg/kg once 6 h after cyclophosphamide, 12 d after modeling): 12.0 ± 5.9 ×10^12
